Tests used:
Caco-2 cell monolayers = experiment: Caco-2 cell monolayer permeability assay; type: in vitro ADME, Human; conditions: apical to basolateral, 37°C, pH 6.0
Protocol: The Caco-2 cell monolayer permeability assay was performed as reported previously. In brief, Caco-2 cells were seeded onto polycarbonate 6-well Transwell® inserts (mean pore size 3.0 μm, Corning Costar Inc., NY, USA) at a density of 4 × 10^5 cells/well, then the confluent monolayers (10–12 days) were used for permeability studies. The transepithelial electrical resistance (TEER) of the monolayer was measured using an epithelial voltohmmeter (EVOM, WPI Inc., USA) to determine the formation of the monolayer and its integrity during the experiment. The studies were carried out in HBSS containing 30 mM HEPES at pH 6.0. Monolayers were washed with HBSS prior to the experiment, after which 0.5 and 1.2 mL of HBSS was placed into the upper and lower compartments, respectively. A total volume of 100 μL of solution (1 or 5 μg/mL) was taken from the lower compartment at regular intervals over 120 min and replaced with the same volume of fresh buffer, followed by a LC-MS/MS analysis. Apparent permeability coefficients (Papp) were calculated using the equation: (∂Q/∂t)/(A*C0), where “∂Q/∂t” is the permeability rate of the drug across the cells, “A” is the diffusion area of the monolayer and “C0” is the initial concentration of GS25 in the upper compartment.

[1] = tested on: LNCaP (p53 wild-type) cells; experiment: Cell viability, MTT assay, LNCaP; type: cell-based, Human; conditions: GS25 equivalent
Protocol: (§1) Assays for cell viability and apoptosis were performed as described previously. In brief, 3–4 × 10^4 cells were seeded in a 96-well plate and treated with various concentrations of GS25 or GS25NP for 24, 48, or 72 h for the MTT assay. To detect apoptosis, 2–3 × 10^5 cells were seeded in 6-well plates and were treated with GS25 or GS25NP for 48 h. Cells positive for Annexin V-FITC and PI were counted on a BD FACSVerse instrument (BD Biosciences, CA, USA).

DU145 (p53 mutant) cells = experiment: Cell viability, MTT assay, DU145; type: cell-based, Human; conditions: GS25 equivalent
Protocol: as §1

PC3 (p53 null) cells = experiment: Cell viability, MTT assay, PC3; type: cell-based, Human; conditions: GS25 equivalent
Protocol: as §1

LNCaP cells = experiment: Apoptosis, Annexin V-FITC, LNCaP; type: cell-based, Human; conditions: 12.3 μg/mL, 48 h
Protocol: as §1

DU145 cells = experiment: Apoptosis, Annexin V-FITC, DU145; type: cell-based, Human; conditions: DU145, 12.3 μg/mL, 48 h
Protocol: as §1

PC3 cells = experiment: Apoptosis, Annexin V-FITC, PC3; type: cell-based, Human; conditions: PC3, 12.3 μg/mL, 48 h
Protocol: as §1

MDM2 = experiment: Western blotting of MDM2 and apoptosis-related proteins in prostate cancer cells; type: cell-based, Human; conditions: 2.5 μg/mL, 24 h, LNCaP, DU145, PC3 cells
Protocol: In the in vitro studies, prostate cancer cells with or without GS25 or GS25NP treatment were lysed in NP40 lysis buffer containing a protease inhibitor mixture (Sigma, St. Louis, MO, USA). In the in vivo studies, tumor tissues were removed and homogenized in NP40 lysis buffer (100 mg tumor tissue/1 mL NP40 buffer), and the supernatants of the homogenates was collected. Then, the cell lysates and tumor homogenates were subjected to Western blotting analyses for the expression levels of MDM2 and other related proteins using the methods described in our previous studies.

[2] = Pharmacokinetics and biodistribution in CD-1 mice; type: in vivo
Protocol: Pharmacokinetic studies were carried out in normal CD-1 mice and nude mice bearing PC3 xenograft tumors as described previously. Briefly, male CD-1 mice were divided randomly into four groups with three mice per time point. One group received 20 mg/kg of GS25 in PEG400:EtOH:saline by intravenous injection into the tail vein. One group of mice received GS25 in PEG400:EtOH:saline (57.1:14.3:28.6, v/v/v) at a dose of 100 mg/kg by oral administration. Two groups received GS25NP at a dose of 20 mg/kg and 100 mg/kg by oral administration. Nude mice bearing PC3 xenografts were divided into two groups and given GS25 and GS25NP at a dose of 100 mg/kg by oral administration. For orally-dosed mice, the plasma and various tissues (tumor, liver, lungs, kidneys, spleen, heart, brain, pancreas, fat, stomach, stomach contents, small intestine, small intestine contents, large intestine, and large intestine contents) were collected at 0, 15, 30, and 60 min, and 2, 4, 8, 24, 48, and 72 h after treatment. For mice that received an i.v. injection, various tissues were collected at 0, 5, 10, 30, and 60 min, and 2, 4, 8, 24, 48, and 72 h after treament. The plasma and tissue samples were stored at −80°C until they were analyzed by LC-MS/MS.

[3] = Maximum tolerated dose (MTD) study; type: in vivo; conditions: CD-1 mice, oral
Protocol: To assess the possible host toxicity of GS25 and GS25NP and establish initial doses for in vivo treatment, a multi-dose MTD study was initially performed for both GS25 and GS25NP at a dose of 200 mg/kg for 7 days. […] The toxicity studies were continued with dose of 400 mg/kg/d for 7 days using a similar protocol. At the end of the study, all mice were euthanized, and various tissues (liver, lungs, kidneys, spleen, heart, and brain) were collected for a pathological analysis.

PC3 xenograft tumors = experiment: In vivo efficacy and host toxicity in PC3 prostate cancer xenograft model; set-up: species or system nude mice
Protocol: The animal study protocol was approved by the Institutional Animal Use and Care Committee of the Texas Tech University Health Sciences Center. Male athymic pathogen-free nude mice (nu/nu, 4–6 weeks) were purchased from Charles River Laboratories (Wilmington, MA). The PC3 human prostate cancer xenografts were established as reported previously. Briefly, a total of 5 × 10^6 PC3 cells (in 0.1 mL) were subcutaneously injected into the left inguinal area of the mice. All animals were monitored for activity, physical condition, body weight, and tumor growth. When the tumor volume reached ~ 100 mm^3, the mice bearing PC3 xenografts were randomly divided into treatment and control groups (10 mice/each group). GS25NP was dissolved in water and administered by oral gavage at a dose of 20 mg/kg/d or 100 mg/kg/d, 5 day/week for 4 weeks, while GS25 in PEG400:EtOH:saline (57.1:14.3:28.6, v/v/v) was administered at a dose of 100 mg/kg/d for 4 weeks. The control groups received vehicle only or void NPs. At the end of the experiment, xenograft tumors and various organs (liver, lungs, kidneys, spleen, heart, and brain) were excised and snap frozen for Western blotting, immunohistochemical studies, TUNEL assays, and hematoxylin and eosin staining.
All of the staining assays were performed as described previously. Briefly, tissues were fixed and embedded in paraffin, cut into 5 μm sections, and then affixed onto glass slides. For the immunohistochemical studies, the tumor sections were blocked and incubated with a biotinylated anti-human MDM2 antibody (diluted 1:50 in 5% BSA in PBS) for 1–2 h at room temperature. Sections were then incubated with pre-diluted streptavidin-peroxidase HRP conjugates and stained with DAB chromogen according to the manufacturer's instructions. Finally, sections were lightly counterstained with hematoxylin. […] Tissue sections were analyzed under a phase-contrast Olympus microscope (Olympus America Inc).

[4] = nude mice bearing PC3 xenografts, 4-week oral treatment (GS25 100 mg/kg; GS25NP 20 and 100 mg/kg)

## COC(C)(C)CCC[C@](C)(O)[C@H]1CC[C@]2(C)[C@@H]1[C@H](O)C[C@@H]1[C@@]3(C)CC[C@H](O)C(C)(C)[C@@H]3CC[C@]12C [GS25, 20(s)-25-methoxyl-dammarane-3beta, 12beta, 20-triol]
Caco-2 cell monolayers
  Apparent permeability coefficient (Papp): 38 ×10⁻⁶ cm/s
[1]; treatment time 24 h
  IC50 LNCaP: 18.3 µg/mL
[1]; treatment time 48 h
  IC50 LNCaP: 11.6 µg/mL
[1]; treatment time 72 h
  IC50 LNCaP: 8.0 µg/mL
DU145 (p53 mutant) cells; treatment time 24 h
  IC50 DU145: 13.1 µg/mL
DU145 (p53 mutant) cells; treatment time 48 h
  IC50 DU145: 8.0 µg/mL
DU145 (p53 mutant) cells; treatment time 72 h
  IC50 DU145: 5.4 µg/mL
PC3 (p53 null) cells; treatment time 24 h
  IC50 PC-3: 10.9 µg/mL
PC3 (p53 null) cells; treatment time 48 h
  IC50 PC-3: 6.7 µg/mL
PC3 (p53 null) cells; treatment time 72 h
  IC50 PC-3: 3.8 µg/mL
LNCaP cells
  Apoptotic cells: 28.5%
DU145 cells
  Apoptotic cells: 18.2%
PC3 cells
  Apoptotic cells: 22.9%
MDM2
  Effect on MDM2 and apoptosis-associated protein levels (p53, Bax, cleaved-PARP): did not produce significant effects
[2]; 100 mg/kg oral vs 20 mg/kg i.v.
  Oral bioavailability: ~ 14.9%
[2]; plasma, 100 mg/kg, p.o.
  AUC0-t: 3500 ng·h/mL
  Cmax: 900 ng/mL
  T1/2: 2.1 h
[3]; 200 or 400 mg/kg/d for 7 days
  Body weight change in MTD study: No significant decrease in mouse body weight
  Histological examination of liver, lungs, kidneys, spleen, heart, brain vs vehicle: no significant differences among the groups
[3]; up to 400 mg/kg/d for 7 days
  Toxicity in MTD study: no toxicity
PC3 xenograft tumors; 100 mg/kg oral, 5 days/week for 4 weeks
  Inhibition of PC3 xenograft tumor growth: approximately 41%
PC3 xenograft tumors; [4]
  Change in average body weight: no significant changes in the average body weights
  Histological findings in liver, lungs, kidneys, spleen, heart, brain vs control: no significant differences in the histological findings

— paper PMC4673272, “Oral nano-delivery of anticancer ginsenoside 25-OCH3-PPD, a natural inhibitor of the MDM2 oncogene: Nanoparticle preparation, characterization, in vitro and in vivo anti-prostate cancer activity, and mechanisms of action” (Oncotarget, 2015)
